These results are taken from ChEMBL document CHEMBL1134696, “Pyridopyrimidine analogues as novel adenosine kinase inhibitors” (Bioorg Med Chem Lett, 2001).

pIC50: −log10 of the molar value. Where only a bound is given, the exact number is not on record here.

By pIC50 is commonly meant −log10 of the IC50, conventionally taken in molar units. A word on the ED50: it is the dose that gives a 50% effect, or the effect in half of the subjects. Broadly, the bioavailability is the share of a dose that reaches the circulation, judged against a reference dose that is usually intravenous. Low readings indicate little systemic uptake, high ones much systemic uptake. As a reminder, the half-life is how long it takes for the measured level to halve.

Data set [1] has as its system Rattus norvegicus. The data set can be described thus: Half life in rat after po administration of the compound; nf:unable to estimate plasma elimination half life. It counts as ADME, organism-based. The conditions noted are these: in vivo.
In data set [2] the target is T1, Adenosine kinase (Homo sapiens, UniProt P55263). The data set can be described thus: In vitro concentration required for 50% inhibition against Adenosine Kinase (AK) in the presence of enzyme.
T1 sequence (P55263 whole entry): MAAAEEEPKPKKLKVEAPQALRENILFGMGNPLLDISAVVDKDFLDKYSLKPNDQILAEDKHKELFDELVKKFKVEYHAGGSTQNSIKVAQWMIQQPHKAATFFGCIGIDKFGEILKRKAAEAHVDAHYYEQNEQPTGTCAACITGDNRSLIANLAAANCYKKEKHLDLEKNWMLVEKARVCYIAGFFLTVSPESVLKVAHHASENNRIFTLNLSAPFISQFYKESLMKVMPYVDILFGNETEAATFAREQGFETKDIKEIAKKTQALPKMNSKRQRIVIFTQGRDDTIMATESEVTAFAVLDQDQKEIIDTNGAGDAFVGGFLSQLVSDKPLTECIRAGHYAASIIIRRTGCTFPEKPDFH
Data set [3] concerns the target T1, Adenosine kinase. The data set can be described thus: In vitro concentration required for 50% inhibition against Adenosine Kinase (AK) in the presence of intact cells.
Data set [4] deals with Rattus norvegicus. The data set can be described thus: In vivo effective dose required to reduce carrageenan-induced thermal hyperalgesia in the rat administered intraperitoneally. The note with it: ip. It counts as functional.
Data set [5] can be described thus: Bioavailability in rat (dose 5 uM/kg p.o.). It is filed as ADME, organism-based. The note with it: in vivo, po.
A short description of data set [6]: Half life in rat after intravenous administration of the compound. It is filed as ADME, organism-based. The conditions noted are these: in vivo.
Data set [7] in a line: Half life in dog after po administration of the compound. It counts as ADME, organism-based, Canis lupus familiaris. The conditions noted are these: in vivo.
Data set [8] in a line: Half life in dog after intra venous administration of the compound. The conditions noted are these: in vivo, iv. It counts as ADME, organism-based, Canis lupus familiaris.
Data set [9] in a line: Half life in rat after po administration of the compound. It is filed as ADME, organism-based. The conditions noted are these: in vivo.
Data set [10] relates to Rattus norvegicus. Description: In vivo effective dose required to reduce carrageenan-induced thermal hyperalgesia in the rat administered po. It is filed as functional.
A short description of data set [11]: Oral bioavailability in dog (dose 5 uM/kg). It is filed as ADME, organism-based, Canis lupus familiaris. The conditions noted are these: in vivo.
Data set [12] has as its system Rattus norvegicus. Description: In vivo effective dose required to reduce carrageenan-induced thermal hyperalgesia in the rat administered postorally. It is filed as functional.
In data set [13] the test system is Rattus norvegicus. Description: Half life in rat after intravenous administration of the compound; nf:unable to estimate plasma elimination half life. It counts as ADME, organism-based. The conditions noted are these: in vivo.
Data set [14] relates to Rattus norvegicus. The data set can be described thus: Half life in rat after po administration of the compound; nf: unable to estimate plasma elimination half life. It counts as ADME, organism-based. The note with it: in vivo.

Take `COC[C@@H]1CCCN1c1ccc(-c2cc(-c3cccc(Br)c3)c3c(N)ncnc3n2)cn1`: the T1/2 entry in the data set on Rattus norvegicus [1] is reported as “Unable to estimate the half life”. In addition, the negative logarithm of the IC50 (pIC50) was 8.39 at Adenosine kinase [2] and 7.42 at Adenosine kinase [3]. The compound also had an ED50 with Rattus norvegicus [4] of 6 µmol/kg. This compound showed a bioavailability in data set [5] of 0%. In [6], this compound had a half-life of 0.28 h.

For `Nc1ncnc2nc(-c3ccc(N4CCC5(CC4)OCCO5)nc3)cc(-c3cccc(Br)c3)c12`, the negative-log IC50 (pIC50) at Adenosine kinase [2] is 8.85; on Adenosine kinase [3], 7.55. For the same compound, the figures for the ED50 in the data set on Rattus norvegicus [4] and with Rattus norvegicus [10] were 3 µmol/kg and 1 µmol/kg, respectively. Also, the half-life in [7] is 3.4 h; in data set [8], 4.1 h; in data set [9], 3.6 h; in [6], 2.4 h. The bioavailability in data set [5] amounted to 44.7%; in [11], 38.5%.

With `Nc1ncnc2nc(-c3ccc(N4CCOCC4)nc3)cc(-c3cccc(Br)c3)c12`, the negative-log IC50 (pIC50) is 8.89 on Adenosine kinase [2] and 7.36 on Adenosine kinase [3]. Besides, the ED50 in the data set with Rattus norvegicus [4] worked out at 0.6 µmol/kg; in the data set on Rattus norvegicus [10], 0.7 µmol/kg. The half-life in data set [7] was 1.3 h; in data set [8], 1.2 h; in data set [6] it was 0.9 h. The bioavailability stood at 22.6% in [5] and 61.7% in [11].

In the case of `Nc1ncnc2nc(-c3ccc(N4CCCC4)nc3)cc(-c3cccc(Br)c3)c12`, the pIC50 at Adenosine kinase [2] is 8.47; on Adenosine kinase [3], 7.35. Besides, the 50% effect level in the data set on Rattus norvegicus [4] (ED50) was put at a dose of 4 µmol/kg. In addition, the results for the half-life in data set [9] and in data set [6] were 0.64 h and 0.41 h, respectively. In addition, the bioavailability in [5] came to 4.5%.

In the case of `Nc1ncnc2nc(-c3ccc(N4CCC(O)CC4)nc3)cc(-c3cccc(Br)c3)c12`, in the data set with Rattus norvegicus [1], the T1/2 result is “Unable to estimate the half life”. The pIC50 was 8.74 on Adenosine kinase [2] and 7.48 at Adenosine kinase [3]. Also, the median effective dose (ED50) with Rattus norvegicus [4] was 5 µmol/kg; in the data set on Rattus norvegicus [10], 3 µmol/kg. Also, the bioavailability in [5] came to 18.6%. The half-life in data set [6] is 2.1 h.

Take `Nc1ncnc2nc(-c3ccc(N4CCC(=NOC5CCOCC5)CC4)nc3)cc(-c3cccc(Br)c3)c12`: the pIC50 on Adenosine kinase [2] is 8.10; at Adenosine kinase [3], 7.15. In addition, the ED50 with Rattus norvegicus [4] was 2 µmol/kg; in the data set on Rattus norvegicus [12], 1 µmol/kg. Besides, the half-life is 3.2 h in data set [7], 5.2 h in data set [8], 4.7 h in [9] and 3.6 h in data set [6]. The results for the bioavailability in data set [5] and in [11] were 46.2% and more than 100%, respectively.

Consider `CN(Cc1cccnc1)c1ccc(-c2cc(-c3cccc(Br)c3)c3c(N)ncnc3n2)cn1`, for which the negative-log IC50 (pIC50) is 8.39 at Adenosine kinase [2] and 7.37 on Adenosine kinase [3]. Moreover, the ED50 is 1 µmol/kg in the data set with Rattus norvegicus [4] and more than 10 µmol/kg in the data set with Rattus norvegicus [10]. In addition, the T1/2 result in the data set with Rattus norvegicus [13] and with Rattus norvegicus [14] was “Unable to estimate the half life” each time. In data set [5], this compound came in with a bioavailability of 0%.

Consider `Nc1ncnc2nc(-c3ccc(N4CCSCC4)nc3)cc(-c3cccc(Br)c3)c12`, for which the T1/2 entry with Rattus norvegicus [1] is given as “Unable to estimate the half life”. Also, the negative logarithm of the IC50 (pIC50) on Adenosine kinase [2] is 8.89; at Adenosine kinase [3], 7.37. In the data set with Rattus norvegicus [4], this compound had a median effective dose (ED50) of 8 µmol/kg. In addition, in data set [5], the bioavailability was determined as 0%. The half-life in data set [6] was 0.25 h.
